Laboratory results reported in US20100099759A1, “AGRICULTURAL APPLICATIONS OF SILVER […]” (priority 2008, published 2010).
Where two headings read alike, the source gives them in different places.

Tested on: Phakopsora pachyrhizi spores
Description: The leaves were examined with a stereoscope in order to identify those with a high degree of sporulation. Leaves were cut in standard size pieces.
Three different concentrations of SDC in distilled water were prepared having 5 ppm, 10 ppm and 15 ppm of silver, respectively. Ten ml of each solution was placed in separate test tubes. Ten selected pieces of soybean leaves were place in each test tube and stirred to suspend the spores present in the rust spots. The same procedure was used for a control, omitting the SDC in the solution. The leaves were left in the solution for two hours. For each of the product dilutions, ten Petri dishes containing water-agar substrate were inoculated with 100 spores each and maintained for 6 hours in the dark. Lactophenol dye was used to stain the mycelium growth, which was evaluated visually be microscope.
A second experiment was performed using the protocol above, with the following additions. Duplicate solutions were made using Well Water from Parana State, Southern Brazil (WW) and Product Water from Reverse Osmosis (PW). The surfactant sodium lauryl sulphate was added to each solution to a concentration of 0.01% w/w. Again, duplicate Petri dishes were inoculated with 100 spores for each concentration of SDC in the two water types and for […] the control.

Question: With `O=C(O)CC(O)(CC(=O)O)C(=O)[O-].[Ag+]` [SDC, silver dihydrogen citrate] as the compound, how does the “germination of spores from soybean leaves (summary in words)” value (5, 10 and 15 ppm silver in distilled water, well water and product water from reverse osmosis, with or without surfactant) read?
Answer: almost totally inhibited

Question: And the “% Germination” value (first experiment, 5 ppm silver in distilled water, 2 h in solution, 6 h in the dark, control 16)?
Answer: 5.0%

Question: And the “% Germination” value (first experiment, 10 ppm silver in distilled water, 2 h in solution, 6 h in the dark, control 16)?
Answer: 4.0%

Question: And the “% Germination” value (first experiment, 15 ppm silver in distilled water, 2 h in solution, 6 h in the dark, control 16)?
Answer: 5.0%

Question: And the “% Germination” value (second experiment, 5 ppm, Product Water from Reverse Osmosis (PW), 0.01% w/w sodium lauryl sulphate, control 40)?
Answer: 1.6%

Question: What about the “% Germination” value (second experiment, 5 ppm, Well Water (WW), 0.01% w/w sodium lauryl sulphate, control 40) of the same compound?
Answer: 1.1%

Question: What about the “% Germination” value (second experiment, 10 ppm, Product Water from Reverse Osmosis (PW), 0.01% w/w sodium lauryl sulphate, control 40) of the same compound?
Answer: 0.4%

Question: What about the “% Germination” value (second experiment, 10 ppm, Well Water (WW), 0.01% w/w sodium lauryl sulphate, control 40) of the same compound?
Answer: 0.5%

Question: And the “% Germination” value (second experiment, 15 ppm, Product Water from Reverse Osmosis (PW), 0.01% w/w sodium lauryl sulphate, control 40)?
Answer: 0.5%

Question: What about the “% Germination” value (second experiment, 15 ppm, Well Water (WW), 0.01% w/w sodium lauryl sulphate, control 40) of the same compound?
Answer: 0.2%
